Test results reported in patent US8106235B2, “Biphenyl compound selective agonists of gamma RAR receptors” (Galderma Research & Development, priority 2005, dated 2012).

Assays:
[1] = biological target: T1, RAR beta (Homo sapiens, UniProt P10826); test: Transactivation test (luciferase reporter, apparent Kd by Schild regression against a reference antagonist), RAR beta; type: cell-based; details: HeLa stable transfectants, ERE-βGlob-Luc reporter, read-out: RAR beta Kdapp
T1 construct: It drives the ERE-βGlob-Luc reporter
T1 sequence (P10826 183-417 limits assumed): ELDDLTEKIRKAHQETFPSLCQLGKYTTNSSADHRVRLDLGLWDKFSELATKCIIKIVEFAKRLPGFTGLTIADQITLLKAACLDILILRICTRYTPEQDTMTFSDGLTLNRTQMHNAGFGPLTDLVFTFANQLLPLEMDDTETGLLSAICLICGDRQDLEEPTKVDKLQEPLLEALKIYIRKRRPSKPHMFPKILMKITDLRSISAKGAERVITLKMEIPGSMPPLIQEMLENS
Protocol: (§1) The activation of the receptors by an agonist (activator) in HeLa cells results in the expression of a reporter gene, luciferase, which, in the presence of a substrate, generates light. It is thus possible to measure the activation of the receptors by quantifying the luminescence produced after incubation of the cells in the presence of a reference antagonist. The activating products displace the antagonist from its site, thus allowing activation of the receptor. The activity is measured by quantifying the increase in the light produced. This measurement makes it possible to determine the activator activity of the compound that can be used in the invention.
(§2) In this study, a constant which is the affinity of the molecule for the receptor is determined. […]
(§3) These cross curves make it possible to determine the AC50 values (concentration at which 50% activation of the receptor is observed) of the reference ligand at various concentrations of test product. These AC50 values are used to calculate the Schild regression by plotting a straight line corresponding to the Schild equation (“Quantitation in receptor pharmacology” Terry P. Kenakin, Receptors and Channels, 2001, 7, 371-385).
(§4) In the case of an agonist, the AC50 is calculated by plotting the curve of the product at the concentration of the reference ligand giving 80% activation. […]

[2] = tested on: RAR gamma; test: Transactivation test (luciferase reporter, apparent Kd by Schild regression against a reference antagonist), RAR gamma; type: cell-based; details: statement in words, from the Kdapp values of the transactivation test
Protocol: as §1
(§5) In this study, a constant which is the affinity of the molecule for the receptor is determined. Since this value can fluctuate according to the basal activity and the expression of the receptor, it is designated apparent Kd (KdApp).
(§6) In order to determine this constant, “cross curves” of the test product (4′-(3′-hydroxypropyl)-3′-(5,5,8,8-tetramethyl-5,6,7,8-tetrahydronaphthalen-2-yl)biphenyl-4-carboxylic acid and 4′-(2,3-dihydroxypropyl)-3′-(5,5,8,8-tetramethyl-5,6,7,8-tetrahydronaphthalen-2-yl)biphenyl-4-carboxylic acid), against a reference antagonist otherwise known as reference ligand, 4-(5,5-dimethyl-8-p-tolyl-5,6-dihydronaphthalen-2-ylethynyl)benzoic acid, are produced. The test product is used at 10 concentrations and the reference antagonist at 7 concentrations. In each well (of a 96-well plate), the cells are in contact with one concentration of the test product and one concentration of the reference antagonist. […]
as §3
(§7) In the case of an agonist, the AC50 is calculated by plotting the curve of the product at the concentration of the reference ligand giving 80% activation. The percentage activation which corresponds to the maximum level of activity obtained is also measured. […]
(§8) The culture medium is removed by turning the plates over, and […] of a 1:1 PBS (phosphate buffered solution)/luciferin mixture are added to each well. After 5 minutes, the plates are read using the luminescence reader.

[3] = biological target: T2, RAR gamma (Homo sapiens, UniProt P13631); test: as above; type: cell-based; details: HeLa stable transfectants, ERE-βGlob-Luc reporter, RAR gamma; apparent Kd; read-out: RAR gamma Kdapp
T2 construct: RAR gamma Kdapp; apparent Kd; It drives the ERE-βGlob-Luc reporter
T2 sequence (P13631 185-419 limits assumed): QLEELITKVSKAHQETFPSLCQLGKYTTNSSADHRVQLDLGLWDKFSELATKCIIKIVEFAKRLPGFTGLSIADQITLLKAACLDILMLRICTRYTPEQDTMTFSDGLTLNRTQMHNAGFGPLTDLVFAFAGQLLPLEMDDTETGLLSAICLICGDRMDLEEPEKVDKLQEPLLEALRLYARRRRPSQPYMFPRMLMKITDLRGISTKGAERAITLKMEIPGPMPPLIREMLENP
Protocol: as §1, §5, §6, §3, §7, §8

[4] = biological target: T3, RAR alpha (Homo sapiens, UniProt P10276); test: Transactivation test (luciferase reporter, apparent Kd by Schild regression against a reference antagonist), RAR alpha; type: cell-based; details: HeLa stable transfectants, ERE-βGlob-Luc reporter, read-out: RAR alpha Kdapp
T3 construct: It drives the ERE-βGlob-Luc reporter
T3 sequence (P10276 183-417 limits assumed): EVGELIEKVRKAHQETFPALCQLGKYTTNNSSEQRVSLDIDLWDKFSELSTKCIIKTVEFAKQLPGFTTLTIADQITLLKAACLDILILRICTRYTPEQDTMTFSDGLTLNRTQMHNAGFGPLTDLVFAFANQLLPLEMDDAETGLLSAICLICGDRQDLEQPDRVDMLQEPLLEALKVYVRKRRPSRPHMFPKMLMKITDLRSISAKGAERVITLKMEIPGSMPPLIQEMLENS
Protocol: as §1, §2, §3, §4

For `CC1(C)CCC(C)(C)c2cc(-c3cc(-c4ccc(C(=O)O)cc4)ccc3CCCO)ccc21` [Example 1, 4′-(3-hydroxypropyl)-3′-(5,5,8,8-tetramethyl-5,6,7,8-tetrahydronaphthalen-2-yl)biphenyl-4-carboxylic acid], the Kd [1] was 2 nM, the melting point was 203 °C and the “selectivity for the RAR gamma receptor subtype in comparison with RAR alpha and RAR beta” value [2] was “better selectivity of these compounds for the RAR gamma receptor subtype”. The Kd [3] was 0.1 nM and the Kd [4] was 15 nM.
With `CC1(C)CCC(C)(C)c2cc(-c3cc(-c4ccc(C(=O)O)cc4)ccc3CC(O)CO)ccc21` (stereo not drawn) [Example 2, 4′-(2,3-dihydroxypropyl)-3′-(5,5,8,8-tetramethyl-5,6,7,8-tetrahydronaphthalen-2-yl)biphenyl-4-carboxylic acid] the Kd [1] was 15 nM, the “selectivity for the RAR gamma receptor subtype in comparison with RAR alpha and RAR beta” value [2] was “better selectivity of these compounds for the RAR gamma receptor subtype” and the Kd [3] was 0.5 nM. For the same compound, the Kd [4] was 60 nM.
